Two compounds from patent US5629298A, “Adenosine as a positive inotrop in the compromised heart” (University of Massachusetts Medical Center, priority 1995, dated 1997) can be followed below.

This assay relates to cultured ventricular myocytes. Put plainly: cAMP content of cultured ventricular myocytes (125I-cAMP RIA). The note with it: Rattus norvegicus, Ventricular myocyte. The assay is classed as cell-based, rat. As for the experimental part: When myocytes were to be used for biochemical studies, each of the culture dishes was preincubated for 2 hours with 1 ml of MEM containing 33 μg of laminin in a 37° C. incubator gassed with 5% CO2 in room air. The laminin solution was removed prior to myocyte seeding. After seeding, the dishes were incubated for an additional 2 hours. The settling and short term culture procedures were performed to purify the myocytes so that >95% of the myocytes adhering to the dishes were rod shaped.
Cyclic AMP levels were determined in cultures of ventricular myocytes according to the following method. After the 2-hour incubation period, the MEM was aspirated and replaced with 2 ml of fresh MEM. Adenosine agonists, ISO, or adenosine antagonists were added to the medium bathing the cells at the concentrations and times indicated. The experiment was terminated by removing the medium from the dish and adding 200 μl of 1N HCl over the cultured myocyte surface. The dishes were then frozen in liquid N2 and stored at -70° C. or held on ice momentarily until extraction was initiated.
For assay, the contents of the dishes were transferred (using 1 ml of distilled/deionized H2 O) into microcentrifuge tubes. The extracts were heated for 1 hour at 57° C. and sonicated for 10 minutes. The extracts were then centrifugated at 14,000 x g for 15 minutes. The supernatant was removed, evaporated, reconstituted in 500 μl of 50 mM sodium acetate buffer and assayed for cAMP using an ^125 I-cAMP RIA kit (Amersham). The pellet was solubilized with 0.1N NaOH and protein determined. The cAMP values are reported in pmol cAMP/mg protein of the extract pellet (total cell protein). This cAMP assay procedure routinely provided recovery values in excess of 90%.

[1] abbreviates: 10 min, read-out: increase in myocyte cAMP.

Molecules are shown by their SMILES. Like-named read-outs stand apart in the source and are kept apart here.

`CC(C)NCC(O)c1ccc(O)c(O)c1` (centres unmarked) [ISO, isoproterenol]: where the note is “1 min, ISO at 0.1 μM for 1 minutes, read-out: increase in myocyte cAMP over basal”, the activation at 0.1 µM is 90%. For the same compound, the activation at 1 µM (1 min, ISO at 1 μM for 1 minutes, read-out: increase in myocyte cAMP over basal) came out at 138%.

Regarding `CCNC(=O)[C@H]1O[C@@H](n2cnc3c(N)nc(NCCc4ccc(CCC(=O)O)cc4)nc32)[C@H](O)[C@@H]1O` [CGS-21680, 2-p-(2-carboxy-ethyl)phenethyl-amino-5'-N-ethylcarboxamido-adenosine], under setting [1], the activation at 1 µM is 77% and the activation at 10 µM stood at 174%. Moreover, the EC50 (commonly the concentration at which the effect is half-maximal) (10 min, read-out: EC50 for increase in myocyte cAMP) is 1150 ± 370 nM.
